Patent US10464925B2, “Methods to induce targeted protein degradation through bifunctional molecules” (Dana-Farber Cancer Institute, Inc., priority 2015, dated 2019)
Where two headings read alike, the source gives them in different places.

Tests used:
BRD4 [1] = biological target: T1, BRD4 (Homo sapiens, UniProt O60885); assay: Immunoblot for BRD4 in MV4-11 cells; format: cell-based
MV4-11 = assay: Analysis of apoptotic cells by Caspase Glo assay; format: cell-based; details: MV4-11, 4 or 8 hours treatment, assessed at 24 hours
BRDT = BRDT (Homo sapiens, UniProt Q58F21); assay: BRDT IC50 (Table 4); format: binding; details: read-out: IC50 (nM) BRDT
MOLT4 = assay: Cell viability, ATPlite 48 hours, MOLT4; format: cell-based; details: Homo sapiens, MOLT-4; MOLT4 cells
MV4; 11 = assay: Cell viability, ATPlite 48 hours, MV4-11; format: cell-based; details: Homo sapiens, 11 cells
DND41 = assay: Cell viability, ATPlite 48 hours, DND41; format: cell-based; details: DND41 cells
PLK1 = PLK1 (Homo sapiens, UniProt P53350); assay: PLK1 IC50 (Table 4); format: biochemical
CUTL1 = assay: Cell viability, ATPlite 48 hours, CUTLL1; format: cell-based; details: CUTL1 cells
NGP = assay: Cell viability, ATPlite 72 hours; format: cell-based; details: NGP cells, Table 4; read-out: IC50 (nM) NGP
797 = assay: Cell viability, 797 cells (Table 4); format: cell-based; details: read-out: IC50 (nM) 797
BRD4 [2] = biological target: T1, BRD4; assay: BRD4 AlphaScreen; format: binding; parameters: […]; His tag (inferred from capture on Ni-coated acceptor beads)
BRD4 [3] = biological target: T1, BRD4; assay: BRD4 Cell Western (BRD4 levels in 293T cells, LiCOR); format: cell-based; parameters: BRD4 levels in the cells after the dBET treatment; endogenous in cells; details: HEK-293T; read-out: BRD4 max degradation(%) Cell Western
CRBN-DDB1 = biological target: T2, CRBN-DDB1 (Homo sapiens, UniProt Q96SW2); assay: CRBN-DDB1 Ligand-Displacement AlphaScreen Assay (thalidomide competition); format: binding; details: biotin-thalidomide competition; read-out: THAL ALPHA (IC50);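 also: streptavidin donor and nickel chelate acceptor bead proximity signal after 30 min incubation, normalized with no-protein background as 0% and DMSO wells as 100% activity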
T2 construct: 6xHis (given for the complex); made in house; host or cells: Sf9 cells (Invitrogen), pFastBac

[4] = biological target: T3, BRD4 adjoined to nanoluciferase (Nluc) (Homo sapiens, UniProt O60885+Q96SW2); assay: BRD4 Dual Luciferase Assay; format: cell-based;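 also: transduced reporter cells exposed to compound for 4 h, then Nluc and Fluc luminescence read, each normalized to DMSO controls and expressed as Nluc/Fluc ratio per well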
T3 construct: expressed in transfected cells

CRBN = biological target: T4, CRBN (Homo sapiens, UniProt Q96SW2); assay: Intracellular CRBN Engagement Assay (dFKBP7 rescue); format: cell-based; details: competition with 80 nM dFKBP7, 3 hours; read-out: FKBP7 rescue (EC50)
T4 construct: endogenous in cells

LRRK2 = LRRK2 (Homo sapiens, UniProt Q5S007); assay: LRRK2 IC50 (Table 4); format: biochemical
FKBP12 (WT) = FKBP12 (WT) (Homo sapiens, UniProt P62942); assay: FKBP12 (WT) Ligand-Displacement AlphaScreen Assay; format: binding; details: biotin-SLF displacement, read-out: IC50 (nM) FKBP
FKBP12 (36V) = FKBP12 (36V) (Homo sapiens, UniProt P62942, F37V); assay: FKBP12 (36V) Ligand-Displacement AlphaScreen Assay; format: binding; details: biotin-SLF displacement, read-out: IC50 (nM) FKBP 36V

Cc1sc2c(c1C)C(c1ccc(Cl)cc1)=N[C@@H](CC(=O)OC(C)(C)C)c1nnc(C)n1-2 [JQ1]
BRD4 degradation by treatment alone (BRD4 [1]): insufficient to induce BRD4 degradation
induction of apoptosis after pulsed treatment and drug washout (MV4-11): did not yield a pronounced apoptotic response

CC[C@@H]1C(=O)N(C)c2cnc(Nc3ccc(C(=O)NCCCCNC(=O)COc4cccc5c4C(=O)N(C4CCC(=O)NC4=O)C5=O)cc3OC)nc2N1C1CCCC1 (some centres unmarked) [dBET2]
IC50 (BRDT): 405 nM
IC50 (MOLT4): 192 nM
IC50 (MV4; 11): 6.3 nM
IC50 (DND41): 110 nM
IC50 (PLK1): 6.15 nM
IC50 (CUTL1): 81.2 nM
IC50 (NGP): 156 nM
IC50 797: 113 nM

CC[C@@H]1C(=O)N(C)c2cnc(Nc3ccc(C(=O)NCCCOCCOCCOCCCNC(=O)COc4cccc5c4C(=O)N(C4CCC(=O)NC4=O)C5=O)cc3OC)nc2N1C1CCCC1 (some centres unmarked) [dBET10]
IC50 (BRDT): 309 nM
IC50 (MOLT4): 452 nM
IC50 (MV4; 11): 28 nM
IC50 (DND41): 271 nM
IC50 (BRD4 [2]; read-out: BRD4 Alpha (IC50)): 83 nM
IC50 (BRD4 [2]; read-out: IC50 (nM) BRD4): 83 nM
IC50 (PLK1): 10.2 nM
IC50 (CUTL1): 152 nM
Dmax (BRD4 [3]): 20%
IC50 (CRBN-DDB1): 0.0127 µM
IC50 (NGP): 413 nM
IC50 797: 163 nM
Conc@Emax [4]: 50 µM
Dmax ([4]; 4 hours, read-out: max degradation (dual luc)): 25.3%
Emax ([4]; BRD4 remaining at Emax, read-out: BRD4− Emax (percent remaining)): 73.1%
Dmax ([4]; read-out: BRD4 max degradation(%) Dual Luciferase): 25%
EC50 (CRBN): 8.12 µM

COc1cc(C(=O)NCCCCNC(=O)COc2cccc3c2C(=O)N(C2CCC(=O)NC2=O)C3=O)ccc1Nc1ncc2c(n1)N(C)c1ccccc1C(=O)N2C (centres unmarked) [dBET11]
IC50 (LRRK2): 7.3 nM
IC50 (BRDT): 2900 nM
IC50 (MV4; 11): 3.38 nM
IC50 (BRD4 [2]; read-out: BRD4 Alpha (IC50)): 958 nM
IC50 (BRD4 [2]; read-out: IC50 (nM) BRD4): 958 nM
IC50 (CRBN-DDB1): 0.0251 µM
IC50 797: > 20000 nM
EC50 (CRBN): 2430 µM

COc1cc(C(=O)NCCCOCCOCCOCCCNC(=O)COc2cccc3c2C(=O)N(C2CCC(=O)NC2=O)C3=O)ccc1Nc1ncc2c(n1)N(C)c1ccccc1C(=O)N2C (centres unmarked) [dBET12]
IC50 (LRRK2): 32 nM
IC50 (BRDT): 5870 nM
IC50 (MV4; 11): > 20000 nM
IC50 (CRBN-DDB1): 0.0238 µM
IC50 797: > 20000 nM
EC50 (CRBN): 34.4 µM

CCC(C)(C)C(=O)C(=O)N1CCCC[C@H]1C(=O)O[C@H](CCc1ccc(OC)c(OC)c1)c1cccc(NC(=O)CCC(=O)NCCCCNC(=O)COc2cccc3c2C(=O)N(C2CCC(=O)NC2=O)C3=O)c1 (some centres unmarked) [dFKBP-1]
IC50 (FKBP12 (WT)): 274 nM
IC50 (FKBP12 (36V)): 237 nM

O=C1CCC(N2C(=O)c3ccccc3C2=O)C(=O)N1 (centres unmarked) [thalidomide]
BRD4 degradation by treatment alone (BRD4 [1]; MV4-11, 24 h): insufficient to induce BRD4 degradation
